From US9145401B2, “Amide derivative and use of the same as stability index of a luliconazole pharmaceutical formulation” (POLA PHARMA INC., priority 2012, dated 2015)

Test system: fungi
Test: Antifungal activity of the amide form

How did the antifungal activity turn out when NC(=O)/C(=C1/SCC(c2ccc(Cl)cc2Cl)S1)n1ccnc1 (single isomer, unassigned) [amide form, [R-(E)]-α-[4-(2,4-dichlorophenyl)-1,3-dithiolan-2-ylidene]-1H-imidazole-1-acetamide] was run?
The antifungal activity was “low”.
